SMILES strings stand for the structures.

In assay [1] the target is Glutamate receptor ionotropic, NMDA 1 (Homo sapiens) (UniProt Q05586). As to the kind of experiment: Selectivity interaction (Panel of kinases, GPCRs, ion channels and transporters (enzymatic assay)) EUB0000266bCl GRIN1.
Assay [2] has as its target Cyclin-dependent kinase 11B (Homo sapiens) (UniProt P21127). As to the kind of experiment: Selectivity interaction (Ambit KINOMEscan and KiNATiv profiling in Jurkat cells) EUB0000090b CDK11B. It is filed as cell-based. The conditions noted are these: at 1 µM.
The target of assay [3] is T1, Muscle, skeletal receptor tyrosine-protein kinase (Homo sapiens) (UniProt O15146).
T1 sequence (whole entry): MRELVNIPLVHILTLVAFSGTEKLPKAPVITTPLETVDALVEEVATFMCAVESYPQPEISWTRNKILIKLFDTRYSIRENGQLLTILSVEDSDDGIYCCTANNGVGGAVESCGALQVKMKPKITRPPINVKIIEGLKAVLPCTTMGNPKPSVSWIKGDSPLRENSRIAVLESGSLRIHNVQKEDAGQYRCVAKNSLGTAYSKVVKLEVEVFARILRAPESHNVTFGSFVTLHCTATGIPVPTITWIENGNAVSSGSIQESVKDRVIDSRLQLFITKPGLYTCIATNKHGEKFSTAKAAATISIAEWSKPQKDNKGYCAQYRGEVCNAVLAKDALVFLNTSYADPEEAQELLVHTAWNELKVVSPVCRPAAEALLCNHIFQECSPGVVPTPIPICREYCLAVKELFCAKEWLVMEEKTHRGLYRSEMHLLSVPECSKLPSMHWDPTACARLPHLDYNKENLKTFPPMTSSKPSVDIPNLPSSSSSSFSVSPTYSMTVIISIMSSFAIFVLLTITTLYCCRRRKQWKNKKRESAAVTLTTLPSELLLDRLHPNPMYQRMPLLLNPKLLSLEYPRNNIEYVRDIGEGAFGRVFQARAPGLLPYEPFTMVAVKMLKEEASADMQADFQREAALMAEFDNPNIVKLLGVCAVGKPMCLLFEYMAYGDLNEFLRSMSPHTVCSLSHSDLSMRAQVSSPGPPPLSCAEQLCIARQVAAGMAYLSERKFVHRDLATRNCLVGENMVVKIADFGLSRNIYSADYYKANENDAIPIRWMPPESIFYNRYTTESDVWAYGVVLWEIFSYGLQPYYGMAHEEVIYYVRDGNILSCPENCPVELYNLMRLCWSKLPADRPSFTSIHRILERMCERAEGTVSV
The assay is described as follows: Selectivity interaction (KinomeScan (DiscoverX)) EUB0001079a MUSK. The conditions noted are these: at 1 µM.

Assay [4] concerns the target Cyclin-dependent kinase-like 3 (Homo sapiens) (UniProt Q8IVW4). The assay is described as follows: Selectivity interaction (KinomeScan (DiscoverX)) EUB0001049a CDKL3. The conditions noted are these: at 1 µM.
Assay [5] has as its target Aurora kinase B (Homo sapiens, UniProt Q96GD4). As to the kind of experiment: Selectivity interaction (Panel of kinases, GPCRs, ion channels and transporters (enzymatic assay)) EUB0000223bCl AURKB.
For assay [6], the target named is Serine/threonine-protein kinase MARK1 (Homo sapiens) (UniProt Q9P0L2). The assay is described as follows: Selectivity interaction (Kinase screening (Nanosyn)) EUB0000604a MARK1.
The target of assay [7] is Tyrosine-protein kinase Lck (Homo sapiens, UniProt P06239). The assay is described as follows: Selectivity interaction (Kinase panel (Z-LYTE Assay)) EUB0001632a LCK. As to conditions: at 10 µM.
In assay [8] the target is Protein kinase C eta type (Homo sapiens) (UniProt P24723). As to the kind of experiment: Selectivity interaction (Kinase panel (Z-LYTE Assay)) EUB0001632a PRKCH. The conditions noted are these: at 10 µM.
In assay [9] the target is Ribosomal protein S6 kinase alpha-1 (Homo sapiens, UniProt Q15418). As to the kind of experiment: Selectivity interaction (KinomeScan (DiscoverX)) EUB0000607a RPS6KA1. As to conditions: at 10 µM.
Assay [10] has as its target Ribosomal protein S6 kinase beta-1 (Homo sapiens, UniProt P23443). The assay is described as follows: Selectivity interaction (ActivX KiNativ screen (kinase selectivity in THP-1 cell lysates)) EUB0000639a RPS6KB1. It is filed as subcellular. As to conditions: lysate, at 1 µM.
Assay [11] deals with T2, 5-hydroxytryptamine receptor 2C (Homo sapiens) (UniProt P28335).
T2 sequence (whole entry): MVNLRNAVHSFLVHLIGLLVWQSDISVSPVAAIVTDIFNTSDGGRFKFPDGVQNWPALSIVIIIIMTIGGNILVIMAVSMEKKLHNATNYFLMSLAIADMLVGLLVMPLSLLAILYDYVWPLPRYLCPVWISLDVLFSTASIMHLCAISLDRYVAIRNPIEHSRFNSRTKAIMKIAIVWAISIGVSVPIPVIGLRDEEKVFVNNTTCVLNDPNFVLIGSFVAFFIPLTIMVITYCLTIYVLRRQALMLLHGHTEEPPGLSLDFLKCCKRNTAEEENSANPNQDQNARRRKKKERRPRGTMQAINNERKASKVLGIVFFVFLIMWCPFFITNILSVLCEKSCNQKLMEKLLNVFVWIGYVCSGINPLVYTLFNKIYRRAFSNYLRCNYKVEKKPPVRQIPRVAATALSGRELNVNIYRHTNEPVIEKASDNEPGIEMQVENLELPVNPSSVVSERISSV
As to the kind of experiment: Selectivity interaction (GPCR panel (PDSP screen)) EUB0000311b HTR2C. As to conditions: at 10 µM.

Assay [12] has as its target Cyclin-dependent kinase 14 (Homo sapiens) (UniProt O94921). As to the kind of experiment: Selectivity interaction (KinomeScan (DiscoverX)) EUB0000618a CDK14. As to conditions: at 10 µM.

Cyclin-dependent kinase 11B (Homo sapiens), sequence (P21127 whole entry): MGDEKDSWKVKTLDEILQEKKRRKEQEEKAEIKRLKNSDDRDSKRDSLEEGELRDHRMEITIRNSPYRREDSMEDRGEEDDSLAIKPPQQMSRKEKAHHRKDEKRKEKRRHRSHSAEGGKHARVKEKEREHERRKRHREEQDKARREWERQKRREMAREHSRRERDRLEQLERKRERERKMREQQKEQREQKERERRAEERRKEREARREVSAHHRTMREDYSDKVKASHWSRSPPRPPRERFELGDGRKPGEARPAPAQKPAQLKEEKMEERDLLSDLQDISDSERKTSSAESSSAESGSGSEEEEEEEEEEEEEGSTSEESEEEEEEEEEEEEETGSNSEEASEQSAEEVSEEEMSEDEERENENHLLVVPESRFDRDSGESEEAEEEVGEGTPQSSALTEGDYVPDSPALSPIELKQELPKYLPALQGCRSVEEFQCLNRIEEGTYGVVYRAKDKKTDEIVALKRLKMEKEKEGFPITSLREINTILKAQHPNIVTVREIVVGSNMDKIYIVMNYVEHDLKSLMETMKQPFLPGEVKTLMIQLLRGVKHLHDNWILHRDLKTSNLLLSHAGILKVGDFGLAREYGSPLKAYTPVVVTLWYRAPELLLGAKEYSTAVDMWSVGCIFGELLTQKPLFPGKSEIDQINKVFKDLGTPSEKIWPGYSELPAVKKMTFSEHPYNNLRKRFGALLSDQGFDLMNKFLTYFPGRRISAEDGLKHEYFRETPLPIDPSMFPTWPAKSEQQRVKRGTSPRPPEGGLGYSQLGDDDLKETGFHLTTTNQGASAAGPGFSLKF
Aurora kinase B, sequence (Q96GD4 whole entry): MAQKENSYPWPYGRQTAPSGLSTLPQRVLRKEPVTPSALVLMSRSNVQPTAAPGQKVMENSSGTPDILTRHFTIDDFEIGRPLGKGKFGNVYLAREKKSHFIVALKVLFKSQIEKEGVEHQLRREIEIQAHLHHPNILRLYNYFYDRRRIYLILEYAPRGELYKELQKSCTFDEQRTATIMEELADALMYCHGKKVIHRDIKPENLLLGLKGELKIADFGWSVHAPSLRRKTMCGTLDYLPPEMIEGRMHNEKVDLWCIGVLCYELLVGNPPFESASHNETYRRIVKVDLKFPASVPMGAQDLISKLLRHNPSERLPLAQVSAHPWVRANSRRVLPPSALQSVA
Ribosomal protein S6 kinase alpha-1, sequence (Q15418 whole entry): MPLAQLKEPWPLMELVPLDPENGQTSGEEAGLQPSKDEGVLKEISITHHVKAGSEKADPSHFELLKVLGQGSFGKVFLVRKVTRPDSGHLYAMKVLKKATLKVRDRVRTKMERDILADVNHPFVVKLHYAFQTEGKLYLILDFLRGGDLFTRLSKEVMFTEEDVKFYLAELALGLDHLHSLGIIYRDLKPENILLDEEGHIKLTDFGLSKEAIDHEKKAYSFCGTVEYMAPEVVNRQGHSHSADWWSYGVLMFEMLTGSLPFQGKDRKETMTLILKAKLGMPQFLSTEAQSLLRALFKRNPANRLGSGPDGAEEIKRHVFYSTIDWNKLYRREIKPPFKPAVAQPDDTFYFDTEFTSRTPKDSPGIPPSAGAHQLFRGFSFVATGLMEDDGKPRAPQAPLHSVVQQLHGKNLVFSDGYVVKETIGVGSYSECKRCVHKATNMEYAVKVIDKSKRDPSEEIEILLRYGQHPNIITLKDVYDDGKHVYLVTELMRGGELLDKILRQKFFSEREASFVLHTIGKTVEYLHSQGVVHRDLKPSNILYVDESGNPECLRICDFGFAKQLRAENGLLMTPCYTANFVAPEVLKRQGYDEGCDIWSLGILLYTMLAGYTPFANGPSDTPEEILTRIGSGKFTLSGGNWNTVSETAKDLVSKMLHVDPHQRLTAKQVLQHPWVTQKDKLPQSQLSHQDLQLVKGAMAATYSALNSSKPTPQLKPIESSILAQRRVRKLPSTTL
Serine/threonine-protein kinase MARK1 (Homo sapiens), sequence (Q9P0L2 whole entry, looked up): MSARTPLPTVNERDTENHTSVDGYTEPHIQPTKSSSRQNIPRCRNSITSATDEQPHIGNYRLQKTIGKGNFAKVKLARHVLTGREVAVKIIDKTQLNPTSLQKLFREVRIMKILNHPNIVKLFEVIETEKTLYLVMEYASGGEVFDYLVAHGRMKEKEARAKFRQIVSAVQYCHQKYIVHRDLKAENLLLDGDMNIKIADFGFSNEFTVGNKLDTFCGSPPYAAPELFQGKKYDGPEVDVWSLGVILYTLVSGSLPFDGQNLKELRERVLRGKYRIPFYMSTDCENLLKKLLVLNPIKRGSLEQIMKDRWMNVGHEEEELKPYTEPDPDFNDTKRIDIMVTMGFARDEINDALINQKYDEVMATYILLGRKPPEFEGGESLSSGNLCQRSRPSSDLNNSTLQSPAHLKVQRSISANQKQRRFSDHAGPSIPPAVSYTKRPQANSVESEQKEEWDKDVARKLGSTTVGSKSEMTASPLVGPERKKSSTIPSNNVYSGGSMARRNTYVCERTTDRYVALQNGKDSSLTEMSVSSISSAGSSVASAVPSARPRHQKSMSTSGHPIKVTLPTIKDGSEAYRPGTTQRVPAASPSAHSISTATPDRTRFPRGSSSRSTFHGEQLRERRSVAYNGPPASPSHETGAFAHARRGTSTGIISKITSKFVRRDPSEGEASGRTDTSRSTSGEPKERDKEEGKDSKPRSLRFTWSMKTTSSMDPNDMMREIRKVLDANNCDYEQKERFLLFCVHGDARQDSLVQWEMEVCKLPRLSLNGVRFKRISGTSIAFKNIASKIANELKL
Tyrosine-protein kinase Lck, sequence (P06239 2-509 limits assumed): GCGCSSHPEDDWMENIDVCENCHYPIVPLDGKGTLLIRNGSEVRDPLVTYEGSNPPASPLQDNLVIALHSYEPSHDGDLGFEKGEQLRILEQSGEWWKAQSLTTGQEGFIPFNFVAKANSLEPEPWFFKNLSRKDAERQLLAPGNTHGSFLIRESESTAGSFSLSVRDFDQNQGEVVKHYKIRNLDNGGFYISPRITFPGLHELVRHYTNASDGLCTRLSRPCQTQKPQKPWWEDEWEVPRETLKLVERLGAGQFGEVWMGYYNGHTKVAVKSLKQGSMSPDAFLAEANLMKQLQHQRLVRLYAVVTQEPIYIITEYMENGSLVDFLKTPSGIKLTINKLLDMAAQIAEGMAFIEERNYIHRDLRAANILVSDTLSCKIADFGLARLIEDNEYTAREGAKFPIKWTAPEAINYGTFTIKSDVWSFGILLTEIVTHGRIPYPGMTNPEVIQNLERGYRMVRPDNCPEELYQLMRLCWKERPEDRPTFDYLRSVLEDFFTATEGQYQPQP
Ribosomal protein S6 kinase beta-1, sequence (P23443 whole entry, looked up): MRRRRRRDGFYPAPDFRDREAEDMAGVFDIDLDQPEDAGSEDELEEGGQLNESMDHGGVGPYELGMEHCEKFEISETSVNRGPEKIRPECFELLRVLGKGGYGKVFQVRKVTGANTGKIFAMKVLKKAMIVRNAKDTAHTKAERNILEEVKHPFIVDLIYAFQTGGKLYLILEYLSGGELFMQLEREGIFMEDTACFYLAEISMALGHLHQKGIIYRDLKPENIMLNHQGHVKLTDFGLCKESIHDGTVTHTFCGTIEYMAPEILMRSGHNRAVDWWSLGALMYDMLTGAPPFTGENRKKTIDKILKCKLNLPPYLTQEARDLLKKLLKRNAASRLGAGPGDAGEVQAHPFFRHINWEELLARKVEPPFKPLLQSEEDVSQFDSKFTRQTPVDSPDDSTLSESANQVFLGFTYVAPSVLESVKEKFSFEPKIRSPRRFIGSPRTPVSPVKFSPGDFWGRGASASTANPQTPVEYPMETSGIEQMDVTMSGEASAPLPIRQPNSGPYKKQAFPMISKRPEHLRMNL
Cyclin-dependent kinase-like 3 (Homo sapiens), sequence (Q8IVW4 whole entry, looked up): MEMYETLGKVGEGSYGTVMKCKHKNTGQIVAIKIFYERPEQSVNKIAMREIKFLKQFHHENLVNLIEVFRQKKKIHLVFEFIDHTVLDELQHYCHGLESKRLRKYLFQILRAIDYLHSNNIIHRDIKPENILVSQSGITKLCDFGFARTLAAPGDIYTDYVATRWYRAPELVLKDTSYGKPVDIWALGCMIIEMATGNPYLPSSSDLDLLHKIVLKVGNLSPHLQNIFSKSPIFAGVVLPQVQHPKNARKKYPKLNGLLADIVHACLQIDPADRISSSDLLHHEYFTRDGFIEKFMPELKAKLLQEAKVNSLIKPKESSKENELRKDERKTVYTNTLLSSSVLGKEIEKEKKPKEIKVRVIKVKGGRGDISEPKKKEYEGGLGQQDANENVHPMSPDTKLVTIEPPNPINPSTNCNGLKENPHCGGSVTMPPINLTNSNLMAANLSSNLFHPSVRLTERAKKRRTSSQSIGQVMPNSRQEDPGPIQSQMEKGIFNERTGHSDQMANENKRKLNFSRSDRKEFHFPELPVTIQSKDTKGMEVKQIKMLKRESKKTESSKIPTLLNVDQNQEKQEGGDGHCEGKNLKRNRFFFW
Cyclin-dependent kinase 14 (Homo sapiens), sequence (O94921 whole entry): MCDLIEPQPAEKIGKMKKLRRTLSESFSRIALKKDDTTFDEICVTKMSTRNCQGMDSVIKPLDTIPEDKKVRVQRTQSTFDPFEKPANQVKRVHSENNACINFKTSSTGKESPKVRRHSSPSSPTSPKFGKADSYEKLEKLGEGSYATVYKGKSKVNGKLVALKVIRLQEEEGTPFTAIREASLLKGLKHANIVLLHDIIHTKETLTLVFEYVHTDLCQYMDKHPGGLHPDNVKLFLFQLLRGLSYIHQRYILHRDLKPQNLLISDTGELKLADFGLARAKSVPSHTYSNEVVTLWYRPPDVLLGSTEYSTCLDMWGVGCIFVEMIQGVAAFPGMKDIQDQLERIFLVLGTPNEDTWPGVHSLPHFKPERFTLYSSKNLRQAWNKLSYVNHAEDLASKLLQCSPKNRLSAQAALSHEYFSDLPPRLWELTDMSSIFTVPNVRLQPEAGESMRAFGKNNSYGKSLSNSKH

With `CCn1c(-c2nc3cc(C(=O)N4CCCC(N)C4)ccc3n2C)cc2ccccc21` (configuration not stated), the pXC50 in assay [1] was less than 4.3 M.
In assay [2], `CN(C)C/C=C/C(=O)Nc1ccc(C(=O)N2CCCC(Nc3ncc(Cl)c(-c4c[nH]c5ccccc45)n3)C2)cc1` (configuration not stated) gave a % of control of 100%.
Turning to `Nc1cnc(N2CCc3cc(S(=O)(=O)Nc4c(F)cc(Cl)cc4F)cc(N4CCCC4=O)c32)nc1` [TP-020n], the % of control in [3] was 100%.
In turn, `COc1cc(Nc2nc(C)cc(-c3cnn4nc(OC)ccc34)n2)cc(C(F)(F)F)c1` returned a % of control in assay [4] of 94%.
`COc1cc(C(=O)N2CC[C@@H](O)[C@@H](N)C2)cc2nc(-c3cc4ccccc4n3CC3CC3)n(C)c12`: in assay [5], the pXC50 was less than 4.5 M.
Regarding `Cc1cnc(Nc2ccc(F)cc2Cl)nc1-c1c[nH]c(C(=O)N[C@H](CO)c2cccc(Cl)c2)c1`, the % of inhibition in [6] amounted to 12%.
`Cn1cc(-n2cnc3c(NCc4nc5cc(Cl)c(Cl)cc5[nH]4)nc(N4CCOCC4)nc32)cn1`: the figures for the % of control in [7] and in assay [8] were 11.9% and 19.3%, respectively.
In the case of `CNC(=O)Nc1ccc(-c2nc(N3CC4CCC(C3)O4)c3cnn(C4CCC5(CC4)OCCO5)c3n2)cc1`, the % of control in assay [9] stood at 91%.
In the case of `CC[C@@H]1[C@H](F)C(=O)N[C@@H]1COc1nccc2cc(C(N)=O)c(OC)cc12` [ZIMLOVISERTIB], the % of inhibition in assay [10] is -5.5%.
As for `CCc1ccccc1C(=O)Nc1n[nH]c2c(C)c(F)c(C3C(C#N)=C(C)N(C)C(C)=C3C#N)cc12` [BAY-3827], in assay [11], the % of inhibition is 20%.
`O[C@H]1CC[C@H](Nc2ncc3nc(Nc4c(F)cc(F)cc4F)n([C@H]4CCOC4)c3n2)CC1` gave a % of control in assay [12] of 100%.

Values taken from ChEMBL document CHEMBL5465560, “Selectivity Literature for EUbOPEN Chemogenomic Library” (2024).
